Results taken from patent publication US20210077592A1, “COMPOSITION TO PREVENT INTESTINAL DAMAGE” (FUSION FARM S.R.L. SEMPLIFICATA, priority 2017, published 2021).

Columns and labels:
Assay type in all cases: cell-based
Caco-2 cells [1] = assay: Lucifer Yellow (LY) assay of paracellular permeability in Caco-2 intestinal damage model
Description: A protocol was developed based on Caco-2 cell inserts model (CACOREADY™ cells, lot no. 24 676 101716 and no. 24 680 111416, Readycell manufacturer) consisting in two steps:
1. Induction of epithelial damage (40 h incubation in glutamine free medium followed by stress induced by 60 mM ethanol for 4 h)
2. Evaluation of the single products first, and then applied in combination during stress induced by the absence of glutamine (60 h), and with subsequent stress induced by ethanol, to evaluate the efficacy in preventing damage. […]
Cells without damage induction (NC=without damage) and with damage induction (PC) were evaluated with the Lucifer Yellow (LY) assay, which verifies the integrity of the cellular junctions in presence of the test substance. […]
According to the experimental protocol, to evaluate the efficacy of the composition of the invention in damage prevention, sodium butyrate (2 mM concentration) and lactoferrin (400 μg/ml concentration), either alone or in combination, were applied on Caco-2 cells during stress induced by absence of glutamine, increasing the time of said deprivation, with respect to the conditions tested during the development of the model, and therefore of stress induction, to 60 hours, to make more evident differences in cells behavior in the different treatment situations. […] The parameters were evaluated at the end. […]

[2] = system: Occludin and Zonula Occludens in Caco-2 cells; assay: Fluorescence immunolabeling of Occludin and Zonula Occludens in Caco-2 cells after damage induction; conditions: pretreatment 60 h without glutamine, then 60 mM ethanol 4 h
Description: As it can be seen by FIG. 1, the damage induced an increase in permeability. The same cells without damage induction (NC) and with damage induction (PC), as indicated above, were further evaluated by fluorescence immunolabeling of Occludina and Zonula Occludens (proteins present in the intestinal membrane intracellular junctions).
(§1) According to the experimental protocol, to evaluate the efficacy of the composition of the invention in damage prevention, sodium butyrate (2 mM concentration) and lactoferrin (400 μg/ml concentration), either alone or in combination, were applied on Caco-2 cells during stress induced by absence of glutamine, increasing the time of said deprivation, with respect to the conditions tested during the development of the model, and therefore of stress induction, to 60 hours, to make more evident differences in cells behavior in the different treatment situations. At the end of 60 hours, the products were removed, and damage was induced for 4 h with 60 mM ethanol. The parameters were evaluated at the end.
To confirm the observed behavior, an evaluation using fluorescence immunolabeling of Occludin and Zonula Occludens was also performed.

Caco-2 cells [3] = assay: Electron Microscopy (SEM) of microvilli of Caco-2 cells after damage induction; conditions: pretreatment 60 h without glutamine, then 60 mM ethanol 4 h, 750x-10000x
Description: The same cells without damage induction (NC) and with damage induction (PC), as indicated above, were finally evaluated by Electron Microscopy (SEM) at different magnifications.
as §1
The same cells were finally evaluated also by Electron Microscopy SEM, at various magnifications.

Compound: CCCC(=O)[O-].[Na+] [sodium butyrate, reference compound]
- increase in LY flux (permeability) (Caco-2 cells [1]; 2 mM sodium butyrate alone during 60 h glutamine deprivation, then 60 mM ethanol 4 h): over 51%
- permeability (LY), result in words (Caco-2 cells [1]; treatment at the same time as damage induction): significant increase in permeability
- fluorescence intensity / expression of tight junction proteins (Occludin, Zonula Occludens), result in words [2]: lower expression of the tight junctions' proteins
- effect on microvilli / villous atrophy by SEM, result in words (Caco-2 cells [3]): did not have any effect in combating the partial villous atrophy
